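Values below derive from 48-hour exposures of cells grown in 96-well plates, with endpoints linearly interpolated between the two concentrations bracketing the appropriate inhibition level. Here, GI50 denotes the concentration required for 50% inhibition of growth.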 Activity calls are given as the source filed them. Rule as the data show it: active = GI50 up to about 1.1 µM and inactive = higher.
What was measured:
Assay in all cases: NCI anticancer screen, dose series, 48 h
786-0 = test system: 786-0
A498 = test system: A498
A549 = test system: A549
ACHN = test system: ACHN
CAKI-1 = test system: CAKI-1
CCRF-CEM = test system: CCRF-CEM
COLO 205 = test system: COLO 205
DLD-1 = test system: DLD-1
DMS-273 = test system: DMS-273
EKVX = test system: EKVX
HCC 2998 = test system: HCC 2998
HCT-116 = test system: HCT-116
HCT-15 = test system: HCT-15
HL-60 = test system: HL-60
HOP-62 = test system: HOP-62
HOP-92 = test system: HOP-92
HT-29 = test system: HT-29
IGROV-1 = test system: IGROV-1
K562 = test system: K562
KM-20L2 = test system: KM-20L2
KM12 = test system: KM12
LOX IMVI = test system: LOX IMVI
M14 = test system: M14
M19-MEL = test system: M19-MEL
MOLT-4 = test system: MOLT-4
Malme-3M = test system: Malme-3M
NCI-H226 = test system: NCI-H226
NCI-H23 = test system: NCI-H23
NCI-H460 = test system: NCI-H460
NCI-H522 = test system: NCI-H522
OVCAR-3 = test system: OVCAR-3
OVCAR-4 = test system: OVCAR-4
OVCAR-5 = test system: OVCAR-5
OVCAR-8 = test system: OVCAR-8
RPMI-8226 = test system: RPMI-8226
SF-268 = test system: SF-268
SF-295 = test system: SF-295
SF-539 = test system: SF-539
SK-MEL-28 = test system: SK-MEL-28
SK-MEL-2 = test system: SK-MEL-2
SK-MEL-5 = test system: SK-MEL-5
SK-OV-3 = test system: SK-OV-3
SN12C = test system: SN12C
SNB-19 = test system: SNB-19
SNB-75 = test system: SNB-75
SR = test system: SR
SW-620 = test system: SW-620
TK-10 = test system: TK-10
U-251 = test system: U-251
UACC-257 = test system: UACC-257
UACC-62 = test system: UACC-62
UO-31 = test system: UO-31
XF498 = test system: XF498
BT-549 = test system: BT-549
DU-145 = test system: DU-145
Hs-578T = test system: Hs-578T
MCF7 = test system: MCF7
MDA-MB-231 = test system: MDA-MB-231
MDA-MB-435 = test system: MDA-MB-435
MDA-N = test system: MDA-N
NCI/ADR-RES = test system: NCI/ADR-RES
PC-3 = test system: PC-3
RXF 393 = test system: RXF 393
T47D = test system: T47D
DMS-114 = test system: DMS-114
LXFL 529 = test system: LXFL 529
SNB-78 = test system: SNB-78

Clc1ccc2c(Cl)ncnc2c1
GI50 (786-0): > 100 µM (inactive)
GI50 (A498): > 100 µM (inactive)
GI50 (A549): > 100 µM (inactive)
GI50 (ACHN): > 100 µM (inactive)
GI50 (CAKI-1): > 100 µM (inactive)
GI50 (CCRF-CEM): > 100 µM (inactive)
GI50 (COLO 205): > 100 µM (inactive)
GI50 (DLD-1): > 100 µM (inactive)
GI50 (DMS-273): > 100 µM (inactive)
GI50 (EKVX): 63.4 µM (inactive)
GI50 (HCC 2998): > 100 µM (inactive)
GI50 (HCT-116): > 100 µM (inactive)
GI50 (HCT-15): > 100 µM
GI50 (HL-60): > 100 µM (inactive)
GI50 (HOP-62): > 100 µM (inactive)
GI50 (HOP-92): 85.7 µM (inactive)
GI50 (HT-29): > 100 µM (inactive)
GI50 (IGROV-1): > 100 µM (inactive)
GI50 (K562): > 100 µM (inactive)
GI50 (KM-20L2): > 100 µM (inactive)
GI50 (KM12): > 100 µM (inactive)
GI50 (LOX IMVI): > 100 µM (inactive)
GI50 (M14): > 100 µM (inactive)
GI50 (M19-MEL): > 100 µM (inactive)
GI50 (MOLT-4): > 100 µM (inactive)
GI50 (Malme-3M): > 100 µM (inactive)
GI50 (NCI-H226): 32.7 µM (inactive)
GI50 (NCI-H23): > 100 µM (inactive)
GI50 (NCI-H460): > 100 µM (inactive)
GI50 (NCI-H522): > 100 µM (inactive)
GI50 (OVCAR-3): > 100 µM (inactive)
GI50 (OVCAR-4): > 100 µM (inactive)
GI50 (OVCAR-5): > 100 µM (inactive)
GI50 (OVCAR-8): > 100 µM (inactive)
GI50 (RPMI-8226): > 100 µM (inactive)
GI50 (SF-268): > 100 µM (inactive)
GI50 (SF-295): > 100 µM (inactive)
GI50 (SF-539): > 100 µM (inactive)
GI50 (SK-MEL-28): > 100 µM (inactive)
GI50 (SK-MEL-2): > 100 µM (inactive)
GI50 (SK-MEL-5): > 100 µM (inactive)
GI50 (SK-OV-3): > 100 µM (inactive)
GI50 (SN12C): > 100 µM (inactive)
GI50 (SNB-19): > 100 µM (inactive)
GI50 (SNB-75): 42.8 µM (inactive)
GI50 (SR): > 100 µM (inactive)
GI50 (SW-620): > 100 µM (inactive)
GI50 (TK-10): > 100 µM (inactive)
GI50 (U-251): > 100 µM (inactive)
GI50 (UACC-257): > 100 µM (inactive)
GI50 (UACC-62): > 100 µM (inactive)
GI50 (UO-31): > 100 µM (inactive)
GI50 (XF498): > 100 µM (inactive)

CC(=O)O[C@H]1CC[C@@]2(C)C(=CC[C@H]3[C@@H]4C[C@H](N5CCN(C)CC5)[C@H](OC(C)=O)[C@@]4(C)CC[C@@H]32)C1
GI50 (786-0): 19.2 µM (inactive)
GI50 (A498): 20.9 µM (inactive)
GI50 (A549): 18.5 µM (inactive)
GI50 (ACHN): 41.9 µM (inactive)
GI50 (BT-549): 17.8 µM (inactive)
GI50 (CAKI-1): 33.3 µM (inactive)
GI50 (CCRF-CEM): 3.98 µM (inactive)
GI50 (COLO 205): 17.1 µM (inactive)
GI50 (DU-145): > 100 µM (inactive)
GI50 (EKVX): 20.7 µM (inactive)
GI50 (HCC 2998): 15.5 µM (inactive)
GI50 (HCT-116): 12.9 µM (inactive)
GI50 (HCT-15): 13 µM
GI50 (HL-60): 2.44 µM (inactive)
GI50 (HOP-62): 25.1 µM (inactive)
GI50 (HOP-92): 25.4 µM (inactive)
GI50 (HT-29): 3.6 µM (inactive)
GI50 (Hs-578T): 26.2 µM (inactive)
GI50 (IGROV-1): 19 µM (inactive)
GI50 (K562): 1.91 µM (inactive)
GI50 (KM12): 16.7 µM (inactive)
GI50 (LOX IMVI): 3.03 µM (inactive)
GI50 (M14): 3.27 µM (inactive)
GI50 (MCF7): 5.64 µM (inactive)
GI50 (MDA-MB-231): 16.7 µM (inactive)
GI50 (MDA-MB-435): 5.08 µM (inactive)
GI50 (MDA-N): 12.1 µM (inactive)
GI50 (MOLT-4): 4.39 µM (inactive)
GI50 (Malme-3M): 11.7 µM (inactive)
GI50 (NCI-H226): 28.9 µM (inactive)
GI50 (NCI-H23): 22.9 µM (inactive)
GI50 (NCI-H460): 21.6 µM (inactive)
GI50 (NCI-H522): 18.8 µM (inactive)
GI50 (NCI/ADR-RES): 19.6 µM (inactive)
GI50 (OVCAR-3): 8.47 µM (inactive)
GI50 (OVCAR-4): 17.6 µM (inactive)
GI50 (OVCAR-5): 26.1 µM (inactive)
GI50 (OVCAR-8): 15.6 µM (inactive)
GI50 (PC-3): 16.8 µM (inactive)
GI50 (RPMI-8226): 4.39 µM (inactive)
GI50 (RXF 393): 19.1 µM (inactive)
GI50 (SF-268): 20 µM (inactive)
GI50 (SF-295): 22.1 µM (inactive)
GI50 (SF-539): 4.26 µM (inactive)
GI50 (SK-MEL-28): 12.5 µM (inactive)
GI50 (SK-MEL-2): 18 µM (inactive)
GI50 (SK-MEL-5): 3.53 µM (inactive)
GI50 (SK-OV-3): > 47.2 µM (inactive)
GI50 (SN12C): 24 µM (inactive)
GI50 (SNB-19): 21.9 µM (inactive)
GI50 (SNB-75): 24.4 µM (inactive)
GI50 (SR): 4.68 µM (inactive)
GI50 (SW-620): 15.5 µM (inactive)
GI50 (T47D): 17.8 µM (inactive)
GI50 (TK-10): > 100 µM (inactive)
GI50 (U-251): 19.7 µM (inactive)
GI50 (UACC-257): 6.17 µM (inactive)
GI50 (UACC-62): 11.7 µM (inactive)
GI50 (UO-31): > 53 µM (inactive)

COc1c(O)c2c(c3cc(C(=O)N4CCc5c4c(O)c(OC)c4[nH]c(C(=O)N6CC7CC78C6=CC(=O)c6[nH]cc(C)c68)cc54)[nH]c13)CCN2C(N)=O (configuration not stated) [CC-1065]
GI50 (786-0): 0.000381 µM (active)
GI50 (A498): 0.0028 µM (active)
GI50 (A549): 0.000232 µM (active)
GI50 (ACHN): 0.00298 µM (active)
GI50 (BT-549): 1.04 µM (active)
GI50 (CAKI-1): 0.000975 µM (active)
GI50 (CCRF-CEM): 0.00507 µM (active)
GI50 (COLO 205): 0.00168 µM (active)
GI50 (DLD-1): 0.00103 µM (active)
GI50 (DMS-114): 0.0025 µM (active)
GI50 (DMS-273): 0.00142 µM (active)
GI50 (DU-145): 0.284 µM (active)
GI50 (EKVX): 0.867 µM (active)
GI50 (HCC 2998): 0.114 µM (active)
GI50 (HCT-116): 0.000207 µM (active)
GI50 (HCT-15): 0.0149 µM
GI50 (HL-60): 0.00783 µM (active)
GI50 (HOP-92): 0.00306 µM (active)
GI50 (Hs-578T): 0.294 µM (active)
GI50 (K562): 0.00309 µM (active)
GI50 (KM-20L2): 0.00334 µM (active)
GI50 (KM12): 0.003 µM (active)
GI50 (LOX IMVI): 0.000895 µM (active)
GI50 (LXFL 529): 0.00834 µM (active)
GI50 (M14): 0.0016 µM (active)
GI50 (M19-MEL): 0.0048 µM (active)
GI50 (MCF7): 0.0577 µM (active)
GI50 (MDA-MB-231): 0.486 µM (active)
GI50 (MDA-MB-435): 0.182 µM (active)
GI50 (MDA-N): 0.237 µM (active)
GI50 (MOLT-4): 0.0164 µM (active)
GI50 (Malme-3M): 0.00209 µM (active)
GI50 (NCI-H226): 0.000212 µM (active)
GI50 (NCI-H23): 0.000927 µM (active)
GI50 (NCI-H460): 0.000175 µM (active)
GI50 (NCI-H522): 0.0205 µM (active)
GI50 (OVCAR-3): 0.0197 µM (active)
GI50 (OVCAR-8): 0.000317 µM (active)
GI50 (PC-3): 0.164 µM (active)
GI50 (RPMI-8226): 0.027 µM (active)
GI50 (RXF 393): 0.188 µM (active)
GI50 (SF-268): 0.00259 µM (active)
GI50 (SF-295): 0.00119 µM (active)
GI50 (SF-539): 0.00366 µM (active)
GI50 (SK-MEL-28): 0.00184 µM (active)
GI50 (SK-MEL-5): 0.0126 µM (active)
GI50 (SK-OV-3): 0.00217 µM (active)
GI50 (SN12C): 0.000685 µM (active)
GI50 (SNB-19): 0.00457 µM (active)
GI50 (SNB-75): 0.00356 µM (active)
GI50 (SNB-78): 0.00404 µM (active)
GI50 (SR): 0.00914 µM (active)
GI50 (SW-620): 0.00105 µM (active)
GI50 (T47D): 0.356 µM (active)
GI50 (TK-10): 0.0266 µM (active)
GI50 (U-251): 0.000191 µM (active)
GI50 (UACC-257): 0.00352 µM (active)
GI50 (UACC-62): 0.00187 µM (active)
GI50 (UO-31): 0.00834 µM (active)

CNc1nc(N(C)C)nc(N(C)C)n1 [PENTAMETHYL MELAMINE]
GI50 (LXFL 529): > 100 µM (inactive)
